Two molecules from PMC8439235, “High-yield synthesis and purification of recombinant human GABA transaminase for high-throughput screening assays” (Journal of Enzyme Inhibition and Medicinal Chemistry, 2021) can be followed below.

Assay [1] concerns the target T1, recombinant human GABA-T (Homo sapiens, UniProt P80404).
T1 construct: made in house; host or cells: Expi293F human cells, transient transfection
Description: GABA-T inhibition assay, coupled with SSADH, NADPH absorbance at 340 nm (Mixture C). The assay is classed as biochemical. The conditions noted are these: for IC50: IC50 for human GABA-T, 10 min preincubation, 25 °C, pH 8.6, 200 µM GABA. On the procedure:
(§1) All test samples were prepared at a final volume of 200 µl/well in a 96-well plate with a clear flat bottom, and the enzyme reaction was carried out at 25 °C. The final solution of the assay in Figure 3(B) consisted of SSA (0, 12.5, 25, 50, 100, and 200 µM), 2.5 mM β-NADP^+, 1 mM 2-mercaptoethanol (2-ME), and SSADH (from 20 µL of 1 U/mL gabaculine-treated GABase) in 50 mM K4P2O7 buffer (pH 8.6). The final solution of the assay in Figure 3(C) consisted of GABA (0, 100 and 200 µM), 2.5 mM β-NADP^+, 5 mM α-KG, 1 mM 2-ME and each enzymatic mixture (Mixture A: 10 µL of 1 U/mL GABase; Mixture B: 10 µL of 1 U/mL gabaculine-treated GABase; Mixture C: 2 µg of human GABA-T mixed with 10 µL of 1 U/mL gabaculine-treated GABase) in 50 mM K4P2O7 buffer at pH 8.6. The final solution of the assay in Figure 3(D) consisted of 200 µM GABA, 2.5 mM β-NADP^+, 5 mM α-KG, 1 mM 2-ME, SSADH (from Mixture B) and human GABA-T at various concentrations (0.156, 0.313, 0.625, 1.25, 2.5, 5, and 10 µg/mL) in 50 mM K4P2O7 buffer at pH 8.6. […] The final solution of the assay in Figure 4(A) consisted of gabaculine (0, 15.63, 31.25, 62.5, 125, 250, 500, and 1000 nM), 200 µM GABA, 2.5 mM β-NADP^+, 5 mM α-KG, and each enzymatic mixture (A or C) in 50 mM K4P2O7 buffer (pH 8.6) containing or not containing 1 mM 2-ME. […] The change in 340 nm absorbance at 25 °C caused by the conversion of NADP^+ to NADPH, which is proportional to GABA-T activity, was recorded every 4 min kinetically with SpectraMax iD5 Multi-Mode Microplate Reader (Molecular Devices). GABA-T activity was calculated during the linear phase of the reaction, corrected for background from blanks. All experiments were performed in triplicate and data were presented as mean ± SEM (Standard Error of Mean) or each replicate. Data plotting and regression analysis were performed with GraphPad Prism software (Version 9.1.2, GraphPad Software).

For assay [2], the target named is T2, bacterial GABA-T (Pseudomonas fluorescens, UniProt Q4KKA1).
T2 sequence (Q4KKA1 1-425): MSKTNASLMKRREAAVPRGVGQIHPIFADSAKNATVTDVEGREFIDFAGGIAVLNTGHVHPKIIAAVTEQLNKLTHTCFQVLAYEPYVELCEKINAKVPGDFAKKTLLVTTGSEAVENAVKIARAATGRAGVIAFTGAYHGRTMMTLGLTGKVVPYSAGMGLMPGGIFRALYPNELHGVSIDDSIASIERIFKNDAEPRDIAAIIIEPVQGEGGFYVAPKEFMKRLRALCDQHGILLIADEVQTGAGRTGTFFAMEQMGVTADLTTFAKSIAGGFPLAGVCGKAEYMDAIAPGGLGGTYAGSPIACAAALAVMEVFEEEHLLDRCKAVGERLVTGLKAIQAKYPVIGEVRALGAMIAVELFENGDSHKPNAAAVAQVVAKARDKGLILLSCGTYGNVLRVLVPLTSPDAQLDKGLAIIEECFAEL
The assay can be described thus: GABA-T inhibition assay with GABase, NADPH absorbance at 340 nm (Mixture A). The format is biochemical. The conditions noted are these: for IC50: 10 min preincubation, 25 °C, pH 8.6, 200 µM GABA.
Text: GABase (Merck, G7509) is a convenient and inexpensive source of SSADH, as it is a commercially available mixture composed of bacterial GABA-T and SSADH obtained from Pseudomonas fluorescens. However, GABase was not able to be used directly in our human GABA-T assay due to the presence of bacterial GABA-T. So we used the bacterial SSADH isolation method as previously described, which allowed large amounts of bacterial SSADH to be isolated quickly and conveniently from GABase by irreversibly inhibiting the bacterial GABA-T activity. Five milligrams of gabaculine (Santa Cruz Biotechnology, sc-200473), a naturally occurring GABA-T irreversible inhibitor, was added to 25 ml of 1 U/mL GABase solution (reconstituted with 50 mM K4P2O7 buffer at pH 8.6), followed by maintaining the reaction at 4 °C for 30 min. The residual gabaculine, which also can inactivate recombinant human GABA-T, was eliminated by dialysis at 4 °C with 2 L of K4P2O7 buffer, changed 3 times per 9 h followed by the final dialysis overnight. The isolated bacterial SSADH was stored at −80 °C for long-term storage.
as §1

Read-outs that look alike come from different tables or passages of the source.

T1 sequence (P80404 29-500): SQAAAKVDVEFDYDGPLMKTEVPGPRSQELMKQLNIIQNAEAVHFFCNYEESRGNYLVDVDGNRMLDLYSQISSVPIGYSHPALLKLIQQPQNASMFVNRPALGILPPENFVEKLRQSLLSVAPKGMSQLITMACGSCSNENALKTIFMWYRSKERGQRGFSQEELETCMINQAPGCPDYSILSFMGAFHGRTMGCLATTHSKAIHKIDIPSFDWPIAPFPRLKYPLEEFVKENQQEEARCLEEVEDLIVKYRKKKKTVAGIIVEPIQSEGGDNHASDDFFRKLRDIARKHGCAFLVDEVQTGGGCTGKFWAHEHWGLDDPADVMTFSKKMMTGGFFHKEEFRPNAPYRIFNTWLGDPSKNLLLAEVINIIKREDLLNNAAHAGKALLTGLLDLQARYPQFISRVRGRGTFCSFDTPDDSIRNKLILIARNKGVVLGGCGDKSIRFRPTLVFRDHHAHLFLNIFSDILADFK

As a reminder, the IC50 is the concentration at which inhibition is half-maximal. For `NC1C=CC=C(C(=O)O)C1` (stereo not drawn) [gabaculine], the half-inhibitory concentration (IC50) stood at 0.22 µM in assay [1] (absence of 2-ME (homodimeric/multimeric form)); 0.12 µM in assay [1] (presence of 1 mM 2-ME (monomeric form)); 0.19 µM in assay [2] (IC50 for bacterial GABA-T, absence of 2-ME (multimeric form)); 0.13 µM in assay [2] (IC50 for bacterial GABA-T, presence of 1 mM 2-ME (monomeric form)). In assay [2] (5 mg gabaculine in 25 ml of 1 U/mL GABase, 4 °C, 30 min, then dialysis, GABA 0, 100, 200 µM), the “GABA degradation-dependent NADPH synthesis in GABase after treatment” value is reported as “completely impaired”.
Turning to `C=CC(N)CCC(=O)O` (stereo not drawn) [vigabatrin], the “difference in sensitivity, human vs bacterial GABA-T” value in assay [1] (with 2-ME, monomeric form) stood at 202 fold; in assay [1] (without 2-ME, human homodimeric vs bacterial multimeric form), 70 fold. The IC50 in assay [2] (absence of 2-ME (multimeric form), read-out: IC50 for bacterial GABA-T) was determined as 631 µM; in assay [2] (presence of 1 mM 2-ME (monomeric form), read-out: IC50 for bacterial GABA-T), 14200 µM.
